Consider 45 compounds from patent US20250122192A1, “5-PYRIMIDINECARBOXAMIDE DERIVATIVES AND METHODS OF USING THE SAME” (Rgenta Therapeutics, Inc., priority 2021, published 2025).

Structures can show the parent of a compound that is named as a salt.

One assay concerns PMS1. The assay can be described thus: Mini-gene reporter assay-PMS1. Type of assay: cell-based. To be noted: Homo sapiens, HEK293, PMS1 mini-gene firefly luciferase reporter transiently transfected into HEK293 cells; read-out: PMS1 IC50. The source says: Biological Activity of the Compounds of the Present Disclosure Mini-gene reporter assay-PMS1
Mini-gene reporter constructs for each target site can be constructed by first PCR amplifying the region-of-interest including the sequence of the alternatively skipped, sequences of the immediate upstream and downstream introns, and sequences of the immediate upstream and downstream exons. Then the 3′end of the amplified sequence can be ligated to a firefly luciferase reporter gene and cloned into the pcDNA3.1 vector backbone. The final reporter construct can be transiently transfected into HEK293 cells using Lipofectamine 3000 transfection reagents. Compounds that can induce the inclusion of the skipped exon in the reporter construct would increase the reporter firefly luciferase activity.
Test compounds may be diluted in duplicates and dispensed into an assay plate. Transient mini-gene reporter cell line stock is resuspended and dispensed into the assay plate. Assay plates are then centrifuged and incubated. A luciferase reagent (e.g. ONE-Glo firefly luciferase reagent from Promega®) may be added to the assay plate and the luminescence (RLU) signals recorded. PMS1 EC50 values may be determined by curve fitting in Levenberg-Marquardt algorithm.
For orientation: A reporter such as luciferase makes a cellular process visible.
For the compound `CCOc1nc(N2CCN(C3CNC3)CC2)ncc1C(=O)Nc1cc(F)c2nc(C)cn2c1` [Compound 221], the concentration for half-maximal inhibition (IC50) (commonly the concentration needed to halve the response being measured) was in the range of 1 to 3 µM.

`CCOc1nc(N2C[C@]3(C)CNC[C@]3(C)C2)ncc1C(=O)Nc1cc(F)c2nc(C)cn2c1` [Compound 148]: the 50% inhibitory concentration (IC50) lay within 1 to 3 µM.

Turning to `CCOc1nc(N2CCC(C3CCCN3)CC2)ncc1C(=O)Nc1cc(F)c2nc(C)cn2c1` (stereo not drawn) [Compound 203], the IC50 is under 0.5 µM.

Regarding `CCOc1nc(N2CCOC3(CCNCC3)C2)ncc1C(=O)Nc1cc(F)c2nc(C)cn2c1` [Compound 223], the IC50 is over 3 µM.

On to `CCOc1nc(N2CC[C@@H](CN(C)C)C2)ncc1C(=O)Nc1cc(F)c2nc(C)cn2c1` [Compound 305, (S)-2-(3-((dimethylamino)methyl)pyrrolidin-1-yl)-4-ethoxy-N-(8-fluoro-2-methylimidazo[1,2-a]pyridin-6-yl)pyrimidine-5-carboxamide formate], for which the 50% inhibitory concentration (IC50) lay within 0.5 to 1 µM.

Take `CCOc1nc(N2CCC3(CCCNC3)C2)ncc1C(=O)Nc1cn2cc(C)nc2c(C)n1` (stereo not drawn) [Compound 106]: the IC50 is over 3 µM.

Turning to `COc1nc(NC2CCNCC2)ncc1C(=O)Nc1cn2cc(C)nc2c(C)n1` [Compound 266, N-(2,8-dimethylimidazo[1,2-a]pyrazin-6-yl)-4-methoxy-2-(piperidin-4-ylamino) pyrimidine-5-carboxamide formic acid], the IC50 was 1 to 3 µM.

`CCOc1nc(N2CCCC(C3CCCCN3)C2)ncc1C(=O)Nc1cc(F)c2nc(C)cn2c1` (stereo not drawn) [Compound 147]: the 50% inhibitory concentration (IC50) was under 0.5 µM.

As to `CCOc1nc(N2CC[C@H](NC)C2)ncc1C(=O)Nc1cc(F)c2nc(C)cn2c1` [Compound 261, (S)-4-ethoxy-N-(8-fluoro-2-methylimidazo[1,2-a]pyridin-6-yl)-2-(3-(methylamino)pyrrolidin-1-yl)pyrimidine-5-carboxamide formate], the IC50 is under 0.5 µM.

In the case of `CCOc1nc(N2CCNCC2)ncc1C(=O)Nc1cc(OC)c2nn(C)cc2c1` [Compound 273, 4-ethoxy-N-(7-methoxy-2-methyl-2H-indazol-5-yl)-2-(piperazin-1-yl)pyrimidine-5-carboxamide formate], the IC50 was in the range of 1 to 3 µM.

`CCOc1nc(N(C)C2CCCNC2)ncc1C(=O)Nc1cc(F)c2nc(C)cn2c1` (stereo not drawn) [Compound 244]: the IC50 was under 0.5 µM.

`CCOc1nc(N2CC3C4CCC(NC4)C3C2)ncc1C(=O)Nc1cn2cc(C)nc2c(C)n1` (stereo not drawn) [Compound 44]: the IC50 is 1 to 3 µM.

Turning to `CCOc1nc(N2CC(C3CCCCCN3)C2)ncc1C(=O)Nc1cn2cc(C)nc2c(C)n1` (stereo not drawn) [Compound 59], the IC50 is under 0.5 µM.

Turning to `CCOc1nc(N2CC[C@H](NC)C2)ncc1C(=O)Nc1cc(OC)c2nn(C)cc2c1` [Compound 298, (S)-4-ethoxy-N-(7-methoxy-2-methyl-2H-indazol-5-yl)-2-(3-(methylamino)pyrrolidin-1-yl)pyrimidine-5-carboxamide 4-methylbenzenesulfonate], the IC50 fell in the range of 1 to 3 µM.

With `CCOc1nc(N2CCC(CN(C)C)CC2)ncc1C(=O)Nc1cc(F)c2nc(C)cn2c1` [Compound 300, 2-(4-((dimethylamino)methyl)piperidin-1-yl)-4-ethoxy-N-(8-fluoro-2-methylimidazo[1,2-a]pyridin-6-yl)pyrimidine-5-carboxamide formate], the half-maximal inhibitory concentration (IC50) lay within 1 to 3 µM.

For the compound `CCOc1nc(N2CCNCC2C2CC2)ncc1C(=O)Nc1cc(F)c2nc(C)cn2c1` (stereo not drawn) [Compound 113], the concentration for half-maximal inhibition (IC50) was in the range of 1 to 3 µM.

Regarding `CCOc1nc(N2CC[C@H](NC)C2)ncc1C(=O)Nc1ccc2nn(C)cc2c1` [Compound 285, (S)-4-ethoxy-N-(2-methyl-2H-indazol-5-yl)-2-(3-(methylamino)pyrrolidin-1-yl)pyrimidine-5-carboxamide 2,2,2-trifluoroacetate], the IC50 fell in the range of 1 to 3 µM.

Take `CCOc1nc(N2CC3(CNCCO3)C2)ncc1C(=O)Nc1cn2cc(C)nc2c(C)n1` [Compound 104]: the 50% inhibitory concentration (IC50) is over 3 µM.

With `CCOc1nc(N2CC[C@H](NC)C2)ncc1C(=O)Nc1cc(F)c2nc(C)cn2c1` (single isomer, unassigned) [Compound 312, hydrochloride], the IC50 is under 0.5 µM.

Turning to `CCOc1nc(N2CCC(NC)C2)ncc1C(=O)Nc1cnc2nc(C)cn2c1` (stereo not drawn) [Compound 287, 4-ethoxy-2-(3-(methylamino)pyrrolidin-1-yl)-N-(2-methylimidazo[1,2-a]pyrimidin-6-yl)pyrimidine-5-carboxamide fomate], the IC50 is 1 to 3 µM.

Regarding `CCOc1nc(N2CCCC3(CCNC3)C2)ncc1C(=O)Nc1cc(F)c2nc(C)cn2c1` (stereo not drawn) [Compound 183], the concentration for half-maximal inhibition (IC50) was over 3 µM.

Consider `CCOc1nc(N2CC[C@H](NC)C2)ncc1C(=O)Nc1cc(F)c2nn(C)cc2c1` [Compound 277, (S)-4-ethoxy-N-(7-fluoro-2-methyl-2H-indazol-5-yl)-2-(3-(methylamino)pyrrolidin-1-yl)pyrimidine-5-carboxamide 4-methylbenzenesulfinate], for which the IC50 is under 0.5 µM.

Consider `CCOc1nc(N2CCNC(C)C2C)ncc1C(=O)Nc1cc(F)c2nc(C)cn2c1` (stereo not drawn) [Compound 213], for which the IC50 is under 0.5 µM.

Turning to `CCOc1nc(N2CCN(C3CCNC3)CC2)ncc1C(=O)Nc1cc(F)c2nc(C)cn2c1` (stereo not drawn) [Compound 224], the IC50 was 1 to 3 µM.

`CCOc1nc(N2CC3CCC2C2CNCC32)ncc1C(=O)Nc1cn2cc(C)nc2c(C)n1` (stereo not drawn) [Compound 97]: the half-inhibitory concentration (IC50) is 1 to 3 µM.

With `CCOc1nc(N2CCC3(CC2)CN(C)C3)ncc1C(=O)Nc1cc(F)c2nc(C)cn2c1` [Compound 303, 4-ethoxy-N-(8-fluoro-2-methylimidazo[1,2-a]pyridin-6-yl)-2-(2-methyl-2,7-diazaspiro[3.5]nonan-7-yl)pyrimidine-5-carboxamide], the 50% inhibitory concentration (IC50) was in the range of 0.5 to 1 µM.

Take `CCOc1nc(N2CC[C@@H](NC)C2)ncc1C(=O)Nc1cc(F)c2nn(C)cc2c1` [Compound 282, (R)-4-ethoxy-N-(7-fluoro-2-methyl-2H-indazol-5-yl)-2-(3-(methylamino)pyrrolidin-1-yl)pyrimidine-5-carboxamide formate]: the IC50 is under 0.5 µM.

As to `CCOc1nc(N2CCC3(CC2)CNC3C(C)C)ncc1C(=O)Nc1cc(F)c2nc(C)cn2c1` (stereo not drawn) [Compound 182], the half-maximal inhibitory concentration (IC50) lay in the range of 0.5 to 1 µM.

Take `CCOc1nc(N2C3CCNCC2CC3)ncc1C(=O)Nc1cc(F)c2nc(C)cn2c1` (stereo not drawn) [Compound 175]: the half-maximal inhibitory concentration (IC50) was over 3 µM.

Consider `CCOc1nc(N2CCC(CNC(C)C)CC2)ncc1C(=O)Nc1cn2cc(C)nc2c(C)n1` [Compound 58], for which the 50% inhibitory concentration (IC50) lay within 0.5 to 1 µM.

Consider `CCNC1CCN(c2ncc(C(=O)Nc3cc(F)c4nc(C)cn4c3)c(OCC)n2)CC1` [Compound 214], for which the half-maximal inhibitory concentration (IC50) was under 0.5 µM.

As to `CCOc1nc(N(C)[C@H]2CCCNC2)ncc1C(=O)Nc1cc(F)c2nc(C)cn2c1` [Compound 163], the IC50 is under 0.5 µM.

Take `CCOc1nc(N2CCNCC2)ncc1C(=O)Nc1cn2cc(C)nc2c(C)n1` [Compound 16, N-{2,8-dimethylimidazo[1,2-a]pyrazin-6-yl}-4-ethoxy-2-(piperazin-1-yl)pyrimidine-5-carboxamide]: the IC50 was over 3 µM.

Consider `COCc1nc(N(C)CC2CNCCO2)ncc1C(=O)Nc1cc(F)c2nc(C)cn2c1` (stereo not drawn) [Compound 189], for which the IC50 is over 3 µM.

Take `CCOc1nc(N2CCC3(CC2)CNC3)ncc1C(=O)Nc1cn2cc(C)nc2c(C)n1` [Compound 86]: the IC50 is under 0.5 µM.

For the compound `CCOc1nc(N2C[C@@H](C)N[C@@H](C)C2)ncc1C(=O)Nc1cc(F)c2nc(C)cn2c1` [Compound 231], the concentration for half-maximal inhibition (IC50) is under 0.5 µM.

In the case of `CCOc1nc(N2CCN(C3CCNCC3)CC2)ncc1C(=O)Nc1cc(F)c2nc(C)cn2c1` [Compound 137], the IC50 was over 3 µM.

For `CCOc1nc(N2CCN3CCCC3C2)ncc1C(=O)Nc1cc(F)c2nc(C)cn2c1` (stereo not drawn) [Compound 5, 4-ethoxy-N-{8-fluoro-2-methylimidazo[1,2-a]pyridin-6-yl}-2-{octahydropyrrolo[1,2-a]pyrazin-2-yl}pyrimidine-5-carboxamide], the IC50 fell in the range of 1 to 3 µM.

In the case of `CCOc1nc(N2CC[C@H](CNC)C2)ncc1C(=O)Nc1cc(F)c2nc(C)cn2c1` [Compound 297, (R)-4-ethoxy-N-(8-fluoro-2-methylimidazo[1,2-a]pyridin-6-yl)-2-(3-((methylamino)methyl)pyrrolidin-1-yl)pyrimidine-5-carboxamide 4-methylbenzenesulfonate], the IC50 was under 0.5 µM.

With `CCOc1nc(N2CCC3CCCC(C2)N3)ncc1C(=O)Nc1cc(F)c2nc(C)cn2c1` (stereo not drawn) [Compound 126], the half-maximal inhibitory concentration (IC50) was 1 to 3 µM.

Regarding `CCOc1nc(N2CCNCC2C)ncc1C(=O)Nc1cc(F)c2nc(C)cn2c1` (stereo not drawn) [Compound 240], the half-inhibitory concentration (IC50) was under 0.5 µM.

Still in this assay, the particulars now being: Homo sapiens, HEK293, read-out: PMS1% Effect at 5 μM.
For `CCOc1nc(N2CCNCC2)ncc1C(=O)Nc1cn2cc(C)nc2cc1F` [Compound 308, 4-ethoxy-N-(7-fluoro-2-methylimidazo[1,2-a]pyridin-6-yl)-2-(piperazin-1-yl)pyrimidine-5-carboxamide formate], the activation at 5 µM is over 75%.

Staying with this assay, now noted: Homo sapiens; at 5 μM; PMS1 mini-gene firefly luciferase reporter in HEK293 cells; read-out: PMS1% Effect at 5 μM.
As to `CCOc1nc(N2CCNCC2C(C)C)ncc1C(=O)Nc1cc(F)c2nc(C)cn2c1` (stereo not drawn) [Compound 227], the activation at 5 µM is under 50%.

As to `CCOc1nc(N2CCC(C3(O)CCNCC3)CC2)ncc1C(=O)Nc1cn2cc(C)nc2c(C)n1` [Compound 66], the activation at 5 µM is under 50%.

For the compound `CCOc1nc(N2CC(CO)C3(CCNCC3)C2)ncc1C(=O)Nc1cn2cc(C)nc2c(C)n1` (stereo not drawn) [Compound 91], the activation at 5 µM was under 50%.
